{"source": "patent US10952433B2", "about": "“Solutions for enhancing the effectiveness of insecticides and fungicides on living plants and related methods” (priority 2015, dated 2021)", "key": {"[1]": {"test_system": "lepidopteran larvae: cabbage loopers (Trichoplusia ni) and beet armyworms (Spodoptera exigua)", "assay_type": "in vivo", "conditions": "plants", "experimental": "In a first group of tests, the results of which are shown in Table 7 (pages 22-24), romaine lettuce plants two to three inches in height were exposed to 10 milliliters of solution applied to each plant using a low volume trigger spray. With respect to containers 0-7, ten plants were employed per container, nine were treated and one was an internal control. In containers M-H, ten plants per container were used, five were treated and 5 were internal controls. Each container was infested with 30 lepidopteran larvae between the 5th and 6th instar development. Fifteen cabbage loopers (Trichoplusia ni) and 15 beet armyworms (Spodoptera exigua) were used to infest the romaine lettuce plants. Visual evaluations for the average percentage total surface area damage were taken 24 hours after infestation. Percentage damage was evaluated by 5% increments for total damage across all plant leaves.\nAs indicated in the first column of Table 7, in some tests, no insecticide was employed and there were two controls; a no water control and a no dye control. A wide variety of insecticides selected from the following group were tested: Chlorantranilopril, Acephate, Methoxyfenozide, Spinosad, Permethrin, and Indoxacarb. The product concentration is shown in PPM in column 2. Column 3 is divided into two subunits, the first being CO3 and the second, PO4. In all instances in columns 3, 4 and 5 and their sub-columns, the concentrations used were 200:1. The fourth column employed amine oxide, but no buffer. […] Two sub-columns each are represented for CO3 and PO4. The final column is a reading of the Percent Lepidopteran Damage to the romaine lettuce plants after 24 hours.\nIn addition to testing the buffered amine system of the present invention with the two amine oxides identified as CO3 and PO4 and their use with 12 carbon length and a mixture of 12 and 18 designated 1218 for comparative data purposes various differences were created in the testing. Some of the tests were performed with (a) no insecticide along with (b) no amine oxide for CO3 and PO4 and (c) with no buffer, but with amine oxide. Also, tests were run using no insecticide and no water control with no foliar application being made. Tests with no insecticide and no dye control employed foliar application of water only. The tests were conducted with all of the testing on the buffer alone, the amine oxide alone and the buffered amine oxide system of the present invention in the concentration of 200:1."}, "[2]": {"test_system": "lepidopteran larvae: cabbage loopers (Trichoplusia ni) and beet armyworms (Spodoptera exigua)", "assay_type": "in vivo", "conditions": "leaf discs", "description": "A second series of tests involved romaine lettuce discs approximately ⅝ inch in diameter. (L. sativa). They were dipped in the treatment solution one second per disc. This test involved the 5/5 configuration, i.e., 5 treated and 5 untreated. The infestation involved […] lepidopteran larvae at the 3rd to 4th instar development per container: four cabbage loopers (Trichoplusia ni), and four beet armyworms (Spodoptera exigua) were employed. The test containers were placed in a dark humidity cabinet at 15° C. and 80% relative humidity. Visual evaluations of the average percent damage were taken at 24, 48 and 72 hours after the initiation of infestation. Damage was evaluated in 5% increments based on total disc area.\nIn the tests reported in Table 8 pages 29-32), romaine lettuce leaf discs ⅝″ in diameter (L. sativa) were dipped in the treatment solution for about one second per disc. Infestation was provided by eight lepidopteran larvae at the 3rd to 4th instar development per container. Four cabbage loopers (Trichoplusia ni) and four beet armyworms (Spodoptera exigua) were employed in infestation. The containers were placed in a dark humidity cabinet at 15° C. and 80% relative humidity. Visual observations of the average percent damage was taken at 24, 48 and 72 hours after infestation. Damage evaluation was by 5% increments over the total disc area.\nIn the tests results provided in Table 8, the identity and concentrations of the insecticide was identical to the tests results reported in Table 7. The concentration of 200:1 was employed for the no amino oxide, no buffer and buffered amine oxide system. This series of tests, however, reported how the percent damage changed with time at the respective 24, 48 and 72 hour intervals."}, "[3]": {"conditions": "insecticide + CO3 buffer 200:1, no amine oxide, PPM: Chlorantranilopril 60, Acephate 70, Methoxyfenozide 100, Spinosad 30, Permethrin 10, Indoxacarb 50"}, "[4]": {"conditions": "insecticide + PO4 buffer 200:1, no amine oxide, PPM: Chlorantranilopril 60, Acephate 70, Methoxyfenozide 100, Spinosad 30, Permethrin 10, Indoxacarb 50"}, "[5]": {"conditions": "insecticide + amine oxide 12, no buffer, 200:1, PPM: Chlorantranilopril 60, Acephate 70, Methoxyfenozide 100, Spinosad 30, Permethrin 10, Indoxacarb 50"}, "[6]": {"conditions": "insecticide + amine oxide 1218, no buffer, 200:1, PPM: Chlorantranilopril 60, Acephate 70, Methoxyfenozide 100, Spinosad 30, Permethrin 10, Indoxacarb 50"}, "[7]": {"conditions": "insecticide + buffered amine oxide system CO3, 12, 200:1, PPM: Chlorantranilopril 60, Acephate 70, Methoxyfenozide 100, Spinosad 30, Permethrin 10, Indoxacarb 50"}, "[8]": {"conditions": "insecticide + buffered amine oxide system CO3, 1218, 200:1, PPM: Chlorantranilopril 60, Acephate 70, Methoxyfenozide 100, Spinosad 30, Permethrin 10, Indoxacarb 50"}, "[9]": {"conditions": "insecticide + buffered amine oxide system PO4, 12, 200:1, PPM: Chlorantranilopril 60, Acephate 70, Methoxyfenozide 100, Spinosad 30, Permethrin 10, Indoxacarb 50"}, "[10]": {"conditions": "insecticide + buffered amine oxide system PO4, 1218, 200:1, PPM: Chlorantranilopril 60, Acephate 70, Methoxyfenozide 100, Spinosad 30, Permethrin 10, Indoxacarb 50"}, "[11]": {"conditions": "insecticide alone, highest, PPM: Chlorantranilopril 120, Acephate 140, Methoxyfenozide 200, Spinosad 60, Permethrin 20, Indoxacarb 100"}, "[12]": {"conditions": "insecticide alone, increased, PPM: Chlorantranilopril 90, Acephate 105, Methoxyfenozide 150, Spinosad 45, Permethrin 15, Indoxacarb 75"}, "[13]": {"conditions": "insecticide alone, PPM: Chlorantranilopril 60, Acephate 70, Methoxyfenozide 100, Spinosad 30, Permethrin 10, Indoxacarb 50"}}, "note": "Like-named read-outs stand apart in the source and are kept apart here."}
{"smiles": "COC(=O)N(C(=O)N1CO[C@@]2(C(=O)OC)Cc3cc(Cl)ccc3C2=N1)c1ccc(OC(F)(F)F)cc1", "note": "[Indoxacarb]", "values": [{"measurement": "Percent Lepidopteran Damage to Romaine Lettuce 24 hr", "setting": "[1]; [3]", "result": 50.5, "unit": "%"}, {"measurement": "Percent Lepidopteran Damage to Romaine Lettuce 24 hr", "setting": "[1]; [4]", "result": 25.5, "unit": "%"}, {"measurement": "Percent Lepidopteran Damage to Romaine Lettuce 24 hr", "setting": "[1]; [5]", "result": 26.5, "unit": "%"}, {"measurement": "Percent Lepidopteran Damage to Romaine Lettuce 24 hr", "setting": "[1]; [6]", "result": 25.5, "unit": "%"}, {"measurement": "Percent Lepidopteran Damage to Romaine Lettuce 24 hr", "setting": "[1]; [7]", "result": 7.0, "unit": "%"}, {"measurement": "Percent Lepidopteran Damage to Romaine Lettuce 24 hr", "setting": "[1]; [8]", "result": 7.0, "unit": "%"}, {"measurement": "Percent Lepidopteran Damage to Romaine Lettuce 24 hr", "setting": "[1]; [9]", "result": 7.5, "unit": "%"}, {"measurement": "Percent Lepidopteran Damage to Romaine Lettuce 24 hr", "setting": "[1]; [10]", "result": 8.0, "unit": "%"}, {"measurement": "Percent Lepidopteran Damage to Romaine Lettuce 24 hr", "setting": "[1]; [11]", "result": 12.0, "unit": "%"}, {"measurement": "Percent Lepidopteran Damage to Romaine Lettuce 24 hr", "setting": "[1]; insecticide alone, highest, PPM: Chlorantranilopril 120, Acephate 140, Methoxyfenozide 200, Spinosad 60, Permethrin 20, Indoxacarb 100, listed as lndoxacarb", "result": 12.5, "unit": "%"}, {"measurement": "Percent Lepidopteran Damage to Romaine Lettuce 24 hr", "setting": "[1]; [12]", "result": 20.0, "unit": "%"}, {"measurement": "Percent Lepidopteran Damage to Romaine Lettuce 24 hr", "setting": "[1]; [13]", "result": 47.0, "unit": "%"}, {"measurement": "Percent Lepidopteran Damage to Romaine Lettuce 24 hr", "setting": "[2]; [3]", "result": 21.5, "unit": "%"}, {"measurement": "Percent Lepidopteran Damage to Romaine Lettuce 24 hr", "setting": "[2]; [4]", "result": 22.5, "unit": "%"}, {"measurement": "Percent Lepidopteran Damage to Romaine Lettuce 24 hr", "setting": "[2]; [5]", "result": 45.5, "unit": "%"}, {"measurement": "Percent Lepidopteran Damage to Romaine Lettuce 24 hr", "setting": "[2]; [6]", "result": 44.5, "unit": "%"}, {"measurement": "Percent Lepidopteran Damage to Romaine Lettuce 24 hr", "setting": "[2]; [7]", "result": 33.5, "unit": "%"}, {"measurement": "Percent Lepidopteran Damage to Romaine Lettuce 24 hr", "setting": "[2]; [8]", "result": 26.5, "unit": "%"}, {"measurement": "Percent Lepidopteran Damage to Romaine Lettuce 24 hr", "setting": "[2]; [9]", "result": 61.0, "unit": "%"}, {"measurement": "Percent Lepidopteran Damage to Romaine Lettuce 24 hr", "setting": "[2]; [10]", "result": 19.0, "unit": "%"}, {"measurement": "Percent Lepidopteran Damage to Romaine Lettuce 24 hr", "setting": "[2]; [11]", "result": 25.0, "unit": "%"}, {"measurement": "Percent Lepidopteran Damage to Romaine Lettuce 24 hr", "setting": "[2]; [12]", "result": 32.0, "unit": "%"}, {"measurement": "Percent Lepidopteran Damage to Romaine Lettuce 24 hr", "setting": "[2]; [13]", "result": 19.5, "unit": "%"}, {"measurement": "Percent Lepidopteran Damage to Romaine Lettuce 48 hr", "setting": "[2]; [3]", "result": 29.0, "unit": "%"}, {"measurement": "Percent Lepidopteran Damage to Romaine Lettuce 48 hr", "setting": "[2]; [4]", "result": 25.0, "unit": "%"}, {"measurement": "Percent Lepidopteran Damage to Romaine Lettuce 48 hr", "setting": "[2]; [5]", "result": 55.0, "unit": "%"}, {"measurement": "Percent Lepidopteran Damage to Romaine Lettuce 48 hr", "setting": "[2]; [6]", "result": 68.0, "unit": "%"}, {"measurement": "Percent Lepidopteran Damage to Romaine Lettuce 48 hr", "setting": "[2]; [7]", "result": 46.5, "unit": "%"}, {"measurement": "Percent Lepidopteran Damage to Romaine Lettuce 48 hr", "setting": "[2]; [8]", "result": 50.5, "unit": "%"}, {"measurement": "Percent Lepidopteran Damage to Romaine Lettuce 48 hr", "setting": "[2]; [9]", "result": 63.5, "unit": "%"}, {"measurement": "Percent Lepidopteran Damage to Romaine Lettuce 48 hr", "setting": "[2]; [10]", "result": 34.5, "unit": "%"}, {"measurement": "Percent Lepidopteran Damage to Romaine Lettuce 48 hr", "setting": "[2]; [11]", "result": 35.5, "unit": "%"}, {"measurement": "Percent Lepidopteran Damage to Romaine Lettuce 48 hr", "setting": "[2]; [12]", "result": 38.0, "unit": "%"}, {"measurement": "Percent Lepidopteran Damage to Romaine Lettuce 48 hr", "setting": "[2]; [13]", "result": 68.5, "unit": "%"}, {"measurement": "Percent Lepidopteran Damage to Romaine Lettuce 72 hr", "setting": "[2]; [3]", "result": 37.5, "unit": "%"}, {"measurement": "Percent Lepidopteran Damage to Romaine Lettuce 72 hr", "setting": "[2]; [4]", "result": 32.5, "unit": "%"}, {"measurement": "Percent Lepidopteran Damage to Romaine Lettuce 72 hr", "setting": "[2]; [5]", "result": 61.5, "unit": "%"}, {"measurement": "Percent Lepidopteran Damage to Romaine Lettuce 72 hr", "setting": "[2]; [6]", "result": 71.0, "unit": "%"}, {"measurement": "Percent Lepidopteran Damage to Romaine Lettuce 72 hr", "setting": "[2]; [7]", "result": 57.5, "unit": "%"}, {"measurement": "Percent Lepidopteran Damage to Romaine Lettuce 72 hr", "setting": "[2]; [8]", "result": 57.0, "unit": "%"}, {"measurement": "Percent Lepidopteran Damage to Romaine Lettuce 72 hr", "setting": "[2]; [9]", "result": 71.0, "unit": "%"}, {"measurement": "Percent Lepidopteran Damage to Romaine Lettuce 72 hr", "setting": "[2]; [10]", "result": 34.5, "unit": "%"}, {"measurement": "Percent Lepidopteran Damage to Romaine Lettuce 72 hr", "setting": "[2]; [11]", "result": 39.5, "unit": "%"}, {"measurement": "Percent Lepidopteran Damage to Romaine Lettuce 72 hr", "setting": "[2]; [12]", "result": 72.0, "unit": "%"}, {"measurement": "Percent Lepidopteran Damage to Romaine Lettuce 72 hr", "setting": "[2]; [13]", "result": 88.0, "unit": "%"}]}
